Results from BindingDB's records for doi:10.1021/jm00126a020 (Sankyo, 1989).

What follows are compounds tested against T1, Thromboxane-A synthase (Homo sapiens, UniProt P24557) (assay: ChEBML_209951).
T1 sequence (P24557 whole entry): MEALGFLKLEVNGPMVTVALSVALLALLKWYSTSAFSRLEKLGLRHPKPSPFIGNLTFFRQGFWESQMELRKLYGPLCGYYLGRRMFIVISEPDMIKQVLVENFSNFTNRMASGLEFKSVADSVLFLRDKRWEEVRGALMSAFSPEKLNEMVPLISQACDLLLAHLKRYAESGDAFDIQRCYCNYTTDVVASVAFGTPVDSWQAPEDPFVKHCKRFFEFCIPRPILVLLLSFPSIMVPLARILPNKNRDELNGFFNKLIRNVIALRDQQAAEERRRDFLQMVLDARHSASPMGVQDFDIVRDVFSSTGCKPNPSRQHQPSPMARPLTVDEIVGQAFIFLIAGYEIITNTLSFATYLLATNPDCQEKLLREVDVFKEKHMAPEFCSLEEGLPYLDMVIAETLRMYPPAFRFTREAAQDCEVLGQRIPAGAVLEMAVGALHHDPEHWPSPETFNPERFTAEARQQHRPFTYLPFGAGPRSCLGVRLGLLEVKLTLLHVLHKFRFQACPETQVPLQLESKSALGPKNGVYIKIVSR
Source text: Inhibition of thromboxane A2 synthetase

| Compound | IC50 |
| --- | --- |
| O=C(O)c1cc2c(s1)CCC(Cn1ccnc1)C2 (stereo not drawn) | 114 nM |
| O=C(O)C1=Cc2sc(Cn3ccnc3)cc2CC1 [2-Imidazol-1-ylmethyl-4,5-dihydro-benzo[b]thiophene-6-carboxylic acid] | 13 nM |
| O=C(O)c1cc2c(s1)CC(Cn1ccnc1)CC2 (stereo not drawn) | 2680 nM |
| O=C(O)C1=Cc2cc(C(C3CCCCC3)n3ccnc3)sc2CC1 (stereo not drawn) | > 10000 nM |
| O=C(O)C1=Cc2cc(Cn3ccnc3)sc2CC1 | 93 nM |

Results, then the compound that gave them:

| IC50 | Compound |
| --- | --- |
| 86 nM | O=C(O)C1CCc2sc(Cn3ccnc3)cc2C1 (stereo not drawn) |
| > 10000 nM | CC(C)(C)C(c1cc2c(s1)CCC(C(=O)O)=C2)n1ccnc1 (stereo not drawn) |
| 1850 nM | O=C(O)C1CCc2cc(CCn3ccnc3)sc2C1 (stereo not drawn) |
| 114 nM | O=C(O)C1=Cc2cc(C(c3ccccc3)n3ccnc3)sc2CC1 (stereo not drawn) |
| > 10000 nM | O=C(O)C1=Cc2sc(CCn3ccnc3)cc2CC1 |
| 1020 nM | O=C(O)C1CCc2sc(CCn3ccnc3)cc2C1 (stereo not drawn) |
| 100 nM | O=C(O)C1=Cc2cc(CCn3ccnc3)sc2CC1 |

Each compound was assayed against Thromboxane-A synthase (Oryctolagus cuniculus) (assay: Inhibition of platelet microsomal thromboxane A2 synthetase in rabbits).

| IC50 | Compound |
| --- | --- |
| 13 nM | O=C(O)C1=Cc2sc(Cn3ccnc3)cc2CC1 [2-Imidazol-1-ylmethyl-4,5-dihydro-benzo[b]thiophene-6-carboxylic acid] |
